Values joined by “and” are separate entries in the source; they are usually repeats but may differ in a detail not shown here. Identical values can stand only once. Inconclusive results and toxic doses are left out. The calls were made as follows: active = survival T/C of 150% or more; inactive = T/C below 125% in these data.
Test system: P388 leukemia ip, CD2F1 mice, survival T/C
Experiment: NCI In Vivo Anticancer Drug Screen. Data for tumor model P388 Leukemia (intraperitoneal) in CD2F1 (CDF1) mice
Conditions: endpoint: median survival time, higher = longer survival
How it was run: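 Mice carrying the transplanted tumor received test compound or vehicle. Survival was recorded in each group, and the value is the treated-group measurement divided by that of the vehicle-treated control group.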

[1] = dose: 25.0 mg/kg/injection, schedule: Q01DX009 (ip), vehicle: Klucel (hydroxypropylcellulose) (HPC)
[2] = dose: 50.0 mg/kg/injection, schedule: Q01DX009 (ip), vehicle: Klucel (hydroxypropylcellulose) (HPC)

Measured: T/C

COc1ccc(C[C@H](N)C(=O)NC2C(CO)OC(n3cnc4c(N(C)C)ncnc43)C2O)cc1 (stereo not given in full)
active: dose: 150.0 mg/kg/injection, schedule: Q01DX009 (ip), vehicle: saline sonified 150 % of control
inactive: dose: 4.0 mg/kg/injection, schedule: Q03HX024 (ip), vehicle: saline 115 % of control | dose: 8.0 mg/kg/injection, schedule: Q01DX005 (ip), vehicle: saline 112 % of control | dose: 8.0 mg/kg/injection, schedule: Q01DX009 (ip), vehicle: saline 107 % of control | dose: 16.0 mg/kg/injection, schedule: Q01DX005 (ip), vehicle: saline 106 % of control | dose: 16.0 mg/kg/injection, schedule: Q01DX009 (ip), vehicle: saline 100 % of control | dose: 16.0 mg/kg/injection, schedule: Q03HX024 (ip), vehicle: saline 92 % of control | dose: 20.0 mg/kg/injection, schedule: Q01DX009 (ip), vehicle: water 92 % of control | dose: 22.0 mg/kg/injection, schedule: Q01DX009 (ip), vehicle: saline with Tween-80 120 % of control | dose: 32.0 mg/kg/injection, schedule: Q01DX005 (ip), vehicle: saline 106 % of control | dose: 32.0 mg/kg/injection, schedule: Q01DX009 (ip), vehicle: saline 109 % of control | dose: 32.0 mg/kg/injection, schedule: Q04DX003 (ip), vehicle: saline 107 % of control | dose: 33.0 mg/kg/injection, schedule: Q01DX009 (ip), vehicle: saline with Tween-80 122 % of control | dose: 40.0 mg/kg/injection, schedule: Q01DX009 (ip), vehicle: water 92 % of control | dose: 60.0 mg/kg/injection, schedule: Q01DX009 (ip), vehicle: water 90 % of control | dose: 64.0 mg/kg/injection, schedule: Q01DX001 (ip), vehicle: saline 101 % of control and 92 % of control | dose: 64.0 mg/kg/injection, schedule: Q01DX005 (ip), vehicle: saline 114 % of control | dose: 64.0 mg/kg/injection, schedule: Q01DX009 (ip), vehicle: saline 109 % of control | dose: 64.0 mg/kg/injection, schedule: Q04DX003 (ip), vehicle: saline 111 % of control | dose: 80.0 mg/kg/injection, schedule: Q01DX009 (ip), vehicle: water 92 % of control | dose: 100.0 mg/kg/injection, schedule: Q01DX009 (ip), vehicle: water 95 % of control | dose: 100.0 mg/kg/injection, schedule: Q04DX003 (ip), vehicle: saline with Tween-80 104 % of control | dose: 128.0 mg/kg/injection, schedule: Q01DX001 (ip), vehicle: saline 118 % of control and 97 % of control | dose: 128.0 mg/kg/injection, schedule: Q01DX005 (ip), vehicle: saline 124 % of control | dose: 128.0 mg/kg/injection, schedule: Q01DX009 (ip), vehicle: saline 118 % of control | dose: 128.0 mg/kg/injection, schedule: Q04DX003 (ip), vehicle: saline 100 % of control | dose: 200.0 mg/kg/injection, schedule: Q04DX003 (ip), vehicle: saline with Tween-80 95 % of control | dose: 256.0 mg/kg/injection, schedule: Q01DX001 (ip), vehicle: saline 111 % of control | dose: 256.0 mg/kg/injection, schedule: Q04DX003 (ip), vehicle: saline 90 % of control | dose: 400.0 mg/kg/injection, schedule: Q04DX003 (ip), vehicle: saline with Tween-80 95 % of control

C/C=C(\C)C(=O)O[C@@H]1c2cc3c(cc2-c2c(cc(OC)c(OC)c2OC)[C@@H]2C(=O)OC[C@@H]12)OCO3
inactive: dose: 1.25 mg/kg/injection, schedule: Q01DX009 (ip), vehicle: Klucel (hydroxypropylcellulose) (HPC) 92 % of control | dose: 2.5 mg/kg/injection, schedule: Q01DX009 (ip), vehicle: Klucel (hydroxypropylcellulose) (HPC) 111 % of control | dose: 5.0 mg/kg/injection, schedule: Q01DX009 (ip), vehicle: Klucel (hydroxypropylcellulose) (HPC) 113 % of control | dose: 10.0 mg/kg/injection, schedule: Q01DX009 (ip), vehicle: Klucel (hydroxypropylcellulose) (HPC) 103 % of control

O=c1[nH][nH]c(=O)n1/N=C\c1ccccc1O
inactive: dose: 50.0 mg/kg/injection, schedule: Q01DX001 (ip), vehicle: Klucel (hydroxypropylcellulose) (HPC) 100 % of control | dose: 100.0 mg/kg/injection, schedule: Q01DX001 (ip), vehicle: Klucel (hydroxypropylcellulose) (HPC) 104 % of control | dose: 200.0 mg/kg/injection, schedule: Q01DX001 (ip), vehicle: Klucel (hydroxypropylcellulose) (HPC) 98 % of control

O=C(NC(Cc1ccccc1F)C(=O)O)c1ccccc1 (stereo not given)
inactive: dose: 25.0 mg/kg/injection, schedule: Q01DX009 (ip), vehicle: other 98 % of control | dose: 50.0 mg/kg/injection, schedule: Q01DX009 (ip), vehicle: other 105 % of control | dose: 100.0 mg/kg/injection, schedule: Q01DX009 (ip), vehicle: other 98 % of control

CC(c1ccccc1)C1NC(=O)NC1=O (stereo not given)
inactive: dose: 25.0 mg/kg/injection, schedule: Q01DX009 (ip), vehicle: saline with Tween-80 117 % of control | dose: 50.0 mg/kg/injection, schedule: Q01DX009 (ip), vehicle: saline with Tween-80 106 % of control | dose: 100.0 mg/kg/injection, schedule: Q01DX009 (ip), vehicle: saline with Tween-80 106 % of control

C[C@@H]1C(=O)C[C@H]2C(C)(C)CCC[C@]2(C)[C@@]1(O)CCc1ccoc1
inactive: dose: 25.0 mg/kg/injection, schedule: Q01DX005 (ip), vehicle: Klucel (hydroxypropylcellulose) (HPC) 100 % of control | dose: 50.0 mg/kg/injection, schedule: Q01DX005 (ip), vehicle: Klucel (hydroxypropylcellulose) (HPC) 100 % of control | dose: 100.0 mg/kg/injection, schedule: Q01DX005 (ip), vehicle: Klucel (hydroxypropylcellulose) (HPC) 100 % of control | dose: 200.0 mg/kg/injection, schedule: Q01DX005 (ip), vehicle: Klucel (hydroxypropylcellulose) (HPC) 96 % of control

O=c1[nH]/c(=C/c2ccccc2)c(=O)[nH]/c1=C/C=C/c1ccccc1
inactive: [1] 107 % of control | [2] 104 % of control | dose: 100.0 mg/kg/injection, schedule: Q01DX009 (ip), vehicle: Klucel (hydroxypropylcellulose) (HPC) 102 % of control

CC12CC3(C)C(Br)C3CC1O2 (stereo not given)
inactive: dose: 44.5 mg/kg/injection, schedule: Q01DX005 (ip), vehicle: saline with Tween-80 97 % of control | dose: 89.0 mg/kg/injection, schedule: Q01DX005 (ip), vehicle: saline with Tween-80 99 % of control | dose: 178.0 mg/kg/injection, schedule: Q01DX005 (ip), vehicle: saline with Tween-80 99 % of control

COC1C(/C=C/c2cnc(N)s2)OC2OC(C)(C)OC21 (stereo not given)
inactive: dose: 100.0 mg/kg/injection, schedule: Q04DX002 (ip), vehicle: saline with Tween-80 102 % of control | dose: 200.0 mg/kg/injection, schedule: Q04DX002 (ip), vehicle: saline with Tween-80 102 % of control | dose: 400.0 mg/kg/injection, schedule: Q04DX002 (ip), vehicle: saline with Tween-80 115 % of control

CCOC(=O)N1C=CC2(C=C1)CCCCCC2
inactive: dose: 37.5 mg/kg/injection, schedule: Q04DX003 (ip), vehicle: Klucel (hydroxypropylcellulose) (HPC) 101 % of control | dose: 75.0 mg/kg/injection, schedule: Q04DX003 (ip), vehicle: Klucel (hydroxypropylcellulose) (HPC) 98 % of control

C[N+]1(C)CCC2=CC(=O)CC(c3ccccc3)C2C1 (stereo not given)
inactive: dose: 50.0 mg/kg/injection, schedule: Q01DX005 (ip), vehicle: saline with Tween-80 100 % of control | dose: 100.0 mg/kg/injection, schedule: Q01DX005 (ip), vehicle: saline with Tween-80 98 % of control | dose: 200.0 mg/kg/injection, schedule: Q01DX005 (ip), vehicle: saline with Tween-80 103 % of control

O=C(CNC(=O)OCc1ccccc1)OC(=O)CNC(=O)OCc1ccccc1
inactive: dose: 100.0 mg/kg/injection, schedule: Q04DX002 (ip), vehicle: Klucel (hydroxypropylcellulose) (HPC) 96 % of control | dose: 200.0 mg/kg/injection, schedule: Q04DX002 (ip), vehicle: Klucel (hydroxypropylcellulose) (HPC) 93 % of control | dose: 400.0 mg/kg/injection, schedule: Q04DX002 (ip), vehicle: Klucel (hydroxypropylcellulose) (HPC) 93 % of control

CS(=O)Cc1cc(-c2ccccc2)no1 (stereo not given)
inactive: dose: 60.0 mg/kg/injection, schedule: Q01DX005 (ip), vehicle: saline with Tween-80 99 % of control | dose: 120.0 mg/kg/injection, schedule: Q01DX005 (ip), vehicle: saline with Tween-80 104 % of control | dose: 240.0 mg/kg/injection, schedule: Q01DX005 (ip), vehicle: saline with Tween-80 97 % of control

CCOC(=O)C(Cc1ccc(N(CCCl)CCCl)cc1)NC(=O)C(N)CCC(=O)O (stereo not given)
active: dose: 5.0 mg/kg/injection, schedule: Q04DX003 (ip), vehicle: water 166 % of control | dose: 6.25 mg/kg/injection, schedule: Q01DX009 (ip), vehicle: Klucel (hydroxypropylcellulose) (HPC) 169 % of control | dose: 10.0 mg/kg/injection, schedule: Q04DX003 (ip), vehicle: water 161 % of control and 196 % of control | dose: 12.5 mg/kg/injection, schedule: Q01DX009 (ip), vehicle: Klucel (hydroxypropylcellulose) (HPC) 202 % of control and 247 % of control | dose: 20.0 mg/kg/injection, schedule: Q04DX003 (ip), vehicle: water 233 % of control and 321 % of control | [1] 196 % of control
inactive: [2] 92 % of control
122 % of control and 348 % of control: dose: 40.0 mg/kg/injection, schedule: Q04DX003 (ip), vehicle: water

Source: PubChem BioAssay AID330 (DTP/NCI, 2004)
